From the OligoGym collection come the findings set out here.

After the bases stand the sugars from the 5' end (letter, count) and the backbone: PS all phosphorothioate, else s phosphorothioate and o phosphodiester by linkage. Methylation of C is not given here. e = 2'-O-(2-methoxyethyl) (MOE); k = constrained ethyl (cEt); d = 2'-deoxy (DNA); m = 2'-O-methyl

This series concerns the target HSD17B13. To be noted: ASO, HepaRG.

With TGATATTCTGTGGCAT (sugars k3 d10 k3, PS), the target mRNA inhibition is, setting by setting: (0.02 µM) 0%; (0.078 µM) 0%; (0.313 µM) 22%; (1 µM) 69%; (1.25 µM) 64%; (5 µM) 82%.

Consider “CCTCGATCCTATATAC (sugars kkdddddddddkekek, PS)”, for which the target mRNA inhibition (1 µM) stood at 3%.

Sequence GCCAACACTAATCTCA (sugars k3 d10 k3, PS) showed a target mRNA inhibition (1 µM) of 40%.

The sequence AGTGAAATCTTGTGTA (sugars k3 d10 k3, PS) yielded a target mRNA inhibition (1 µM) of 41%.

Sequence CAATTATATGAGGTCT (sugars k3 d10 k3, PS) came in with a target mRNA inhibition (1 µM) of 36%.

For the sequence AGTAATCACAAGTAAG (sugars k3 d10 k3, PS), where the note is “1 µM”, the target mRNA inhibition was 54%.

For “TTATGTGATTGAGTTC (sugars k3 d9 k3 e1, PS)”, the target mRNA inhibition (1 µM) turned out to be 30%.

Take AAAAGTGTCCTCGATC (sugars k3 d10 k3, PS): under “1 µM”, the target mRNA inhibition turned out to be 17%.

CTATAACTGGAAGGAG (sugars k3 d10 k3, PS): the target mRNA inhibition (1 µM) was 43%.

Regarding GCTGATTAATCTTGAT (sugars k3 d10 k3, PS), the target mRNA inhibition (1 µM) turned out to be 48%.

On to GATACTTACCAATATG (sugars k3 d10 k3, PS), for which the target mRNA inhibition (1 µM) was found to be 22%.

On to “TGAAGTTAGTATAGTT (sugars kkdddddddddkekek, PS)”, for which the target mRNA inhibition (1 µM) came out at 46%.

For the sequence AGTAAACGACTCTGTA (sugars k3 d10 k3, PS), the target mRNA inhibition (1 µM) was 33%.

TCTTCTCTTGGGTCCA (sugars k3 d10 k3, PS) had a target mRNA inhibition (1 µM) of 59%.

The sequence AATAGGAGAGTCTTTC (sugars k3 d10 k3, PS) displayed a target mRNA inhibition (1 µM) of 47%.

On to AATACATTAGCAAGCT (sugars k3 d10 k3, PS), for which, for the setting “1 µM”, the target mRNA inhibition came to 45%.

Sequence GCTGCTATTTAGGGCA (sugars k3 d10 k3, PS) showed a target mRNA inhibition (1 µM) of 53%.

For the setting “1 µM”, GTGTAAATAAGTTCTC (sugars k3 d10 k3, PS) displayed a target mRNA inhibition of 61%.

“GCAAGCCAACAGAGAG (sugars k3 d1 m1 d8 k3, PS)” had a target mRNA inhibition (1 µM) of 26%.

As for GAAAACTCAGCCAGCA (sugars k3 d10 k3, PS), the target mRNA inhibition was determined as 0% (0.02 µM); 2% (0.078 µM); 51% (0.313 µM); 78% (1 µM); 73% (1.25 µM); 75% (5 µM).

Where the note is “1 µM”, GTAAAGGCTGGGTGAG (sugars k3 d10 k3, PS) came in with a target mRNA inhibition of 41%.

In the case of GATATGAGTAAAGATC (sugars k3 d10 k3, PS), the target mRNA inhibition (1 µM) worked out at 23%.

For the setting “1 µM”, “ATTGUCTAAACATCTC (sugars k3 d1 m1 d8 k3, PS)” returned a target mRNA inhibition of 73%.

ACCAAGTAGCTTACAT (sugars k3 d10 k3, PS) registered a target mRNA inhibition (1 µM) of 2%.

On to CTCAAGGAGTACTTCA (sugars k3 d10 k3, PS), for which the target mRNA inhibition (0.02 µM) came to 2%; the target mRNA inhibition (0.078 µM) was 2%; the target mRNA inhibition (0.313 µM) worked out at 30%; the target mRNA inhibition (1 µM) was 82%; the target mRNA inhibition (1.25 µM) stood at 78%; the target mRNA inhibition (5 µM) was found to be 95%.

TAGTTAGAATAGTCTT (sugars k3 d10 k3, PS): the target mRNA inhibition (1 µM) turned out to be 23%.

For CTATGCAAGCCTTCAC (sugars k3 d10 k3, PS), under “1 µM”, the target mRNA inhibition stood at 19%.

As for TCGGTCACCTTTCATA (sugars k3 d10 k3, PS), the target mRNA inhibition (1 µM) was found to be 64%.

Under “1 µM”, ATGAGATTACCCCTGG (sugars k3 d10 k3, PS) returned a target mRNA inhibition of 62%.

For “GTCTACCTCTAAGTTA (sugars kkdddddddddkekek, PS)”, where the note is “1 µM”, the target mRNA inhibition was found to be 15%.

For the sequence GAACCAATATGCTCTG (sugars k3 d10 k3, PS), for the setting “1 µM”, the target mRNA inhibition is 61%.

CACCTTATTAATATCC (sugars k3 d10 k3, PS) had a target mRNA inhibition (1 µM) of 34%.

CACCAACGACTCCAAG (sugars k3 d10 k3, PS) displayed a target mRNA inhibition (1 µM) of 16%.

AGTATTCCATCTATCA (sugars k3 d10 k3, PS) gave a target mRNA inhibition (1 µM) of 62%.

On to GATTACCCCTGGCTTT (sugars k3 d10 k3, PS), for which the target mRNA inhibition (1 µM) was 31%.

Consider “AGAGGCTAGGGAAATC (sugars k3 d9 k3 e1, PS)”, for which the target mRNA inhibition (1 µM) was determined as 68%.

As for CTAGGGAGGAGGTACT (sugars k3 d10 k3, PS), the target mRNA inhibition (1 µM) is 29%.

Where the note is “1 µM”, TGCATAAGAGATGAGT (sugars k3 d10 k3, PS) displayed a target mRNA inhibition of 19%.

With “TATGAAGTTAGTATAG (sugars k3 d9 k3 e1, PS)”, where the note is “1 µM”, the target mRNA inhibition was found to be 13%.

Turning to AAATTGATACACCAAT (sugars k3 d10 k3, PS), where the note is “1 µM”, the target mRNA inhibition was determined as 14%.

Regarding “CTTATTGGTAAGTATT (sugars kkdddddddddkekek, PS)”, the target mRNA inhibition (1 µM) was found to be 9%.

In turn, GCTCCAGTAATGAGAA (sugars k3 d10 k3, PS) yielded a target mRNA inhibition (1 µM) of 34%.

TTCTATCAACCTGCAC (sugars k3 d10 k3, PS) displayed a target mRNA inhibition (1 µM) of 62%.

CTAGGATGTTGACCTC (sugars k3 d10 k3, PS) displayed a target mRNA inhibition (1 µM) of 0%.

Consider GAAATCTTGTGTAACT (sugars k3 d10 k3, PS), for which the target mRNA inhibition reads like this: (0.02 µM) 0%; (0.078 µM) 4%; (0.313 µM) 37%; (1 µM) 69%; (1.25 µM) 71%; (5 µM) 87%.

Consider ATAACTACAAGAGGTT (sugars k3 d10 k3, PS), for which the target mRNA inhibition (1 µM) turned out to be 64%.

“TGGGACCAAGGATATA (sugars k3 d1 m1 d8 k3, PS)” yielded a target mRNA inhibition (1 µM) of 51%.

On to “GAAATTGATACACCAA (sugars kkdddddddddkekek, PS)”, for which the target mRNA inhibition (1 µM) worked out at 68%.

AATAGCCAGTACAGTT (sugars k3 d10 k3, PS): the target mRNA inhibition (1 µM) stood at 46%.

Sequence TATATGTTGATGTTAC (sugars k3 d10 k3, PS) had a target mRNA inhibition (1 µM) of 34%.

GTTGACCTCAAATGTC (sugars k3 d10 k3, PS): the target mRNA inhibition (1 µM) stood at 0%.

Regarding AGTGCTTAGTTCATTG (sugars k3 d10 k3, PS), the target mRNA inhibition by setting is: (0.02 µM) 0%; (0.078 µM) 0%; (0.313 µM) 31%; (1 µM) 84%; (1.25 µM) 58%; (5 µM) 84%.

In turn, AGAGTATTTCCTCTGG (sugars k3 d10 k3, PS) had a target mRNA inhibition (1 µM) of 32%.

Take GGTAATCTCTTCATCC (sugars k3 d10 k3, PS): the target mRNA inhibition (1 µM) was determined as 9%.

On to TGACATAGACATGTGT (sugars k3 d10 k3, PS), for which the target mRNA inhibition (1 µM) came to 42%.

As for “TACCTCTAAGTTAGCC (sugars kkdddddddddkekek, PS)”, the target mRNA inhibition (1 µM) was 20%.

Take ACCAAACTTCCAGCAG (sugars k3 d10 k3, PS): under “1 µM”, the target mRNA inhibition was 31%.

The sequence TAGGAACATTCCCTCT (sugars k3 d10 k3, PS) displayed a target mRNA inhibition (1 µM) of 24%.

In turn, TGCATCTTAAGATACC (sugars k3 d10 k3, PS) gave a target mRNA inhibition (1 µM) of 81%.

In turn, AGTAAATGATGGCAGG (sugars k3 d10 k3, PS) showed a target mRNA inhibition (1 µM) of 40%.

The sequence “AATCACAAGTAAGGTA (sugars k3 d1 m1 d8 k3, PS)” yielded a target mRNA inhibition (1 µM) of 31%.

CAACCAAACTTCCAGC (sugars k3 d10 k3, PS): the target mRNA inhibition (1 µM) was 72%.

Under “1 µM”, CGCATGCGCAGTGACG (sugars k3 d10 k3, PS) registered a target mRNA inhibition of 46%.

For the sequence TGCTGGAACAATATGG (sugars k3 d10 k3, PS), the target mRNA inhibition (1 µM) stood at 36%.

As to TGCATTAATGCCACCC (sugars k3 d10 k3, PS), the target mRNA inhibition (1 µM) amounted to 22%.

TATTAAGTACTGTGAG (sugars k3 d10 k3, PS) came in with a target mRNA inhibition (1 µM) of 0%.

“ACTACAAGAGGTTATT (sugars k3 d9 k3 e1, PS)” displayed a target mRNA inhibition (1 µM) of 58%.

On to ATAAGGCCGATTCATG (sugars k3 d10 k3, PS), for which the target mRNA inhibition (1 µM) is 38%.

AAGCAGAATTGTGAAC (sugars k3 d10 k3, PS): the target mRNA inhibition (1 µM) was 18%.

For the sequence TCTATAGCTAAGTATA (sugars k3 d10 k3, PS), the target mRNA inhibition (1 µM) amounted to 0%.

Where the note is “1 µM”, CCTATGAAAAACTACG (sugars k3 d10 k3, PS) yielded a target mRNA inhibition of 36%.

For the sequence GCATAAGTTACCAGAG (sugars k3 d10 k3, PS), the target mRNA inhibition was 0% (0.02 µM); 0% (0.078 µM); 40% (0.313 µM); 79% (1 µM); 51% (1.25 µM); 85% (5 µM).

The sequence GACCAATATAATCCAA (sugars k3 d10 k3, PS) yielded a target mRNA inhibition (1 µM) of 34%.

As to ACAATTAACATTCGGC (sugars k3 d10 k3, PS), the target mRNA inhibition turned out to be 13% (0.02 µM); 15% (0.078 µM); 43% (0.313 µM); 77% (1 µM); 62% (1.25 µM); 79% (5 µM).

The sequence TCATCGATGGAAGAAG (sugars k3 d10 k3, PS) came in with a target mRNA inhibition (1 µM) of 24%.

AATTATACTTTTCCGT (sugars k3 d10 k3, PS) gave a target mRNA inhibition (1 µM) of 66%.

Under “1 µM”, TTTGAGAGAACTTATA (sugars k3 d10 k3, PS) returned a target mRNA inhibition of 0%.

As to GTATCATTTGGCTTAA (sugars k3 d10 k3, PS), where the note is “1 µM”, the target mRNA inhibition came out at 29%.

Sequence TCTAAATACCCTTGGT (sugars k3 d10 k3, PS) came in with a target mRNA inhibition (1 µM) of 26%.

As for AAATTTCAGTACCCAG (sugars k3 d10 k3, PS), the target mRNA inhibition (1 µM) turned out to be 46%.

In turn, TGCCTGCTGAAACTTG (sugars k3 d10 k3, PS) returned a target mRNA inhibition (1 µM) of 31%.

The sequence TGCAAAGTTAATAGGA (sugars k3 d10 k3, PS) had a target mRNA inhibition (1 µM) of 43%.
